From US20090214454A1, “METHOD FOR SKIN WHITENING USING (2Z, 8Z) - MATRICARIA ACID METHYL ESTER” (INHA-INDUSTRY PARTNERSHIP INSTITUTE, priority 2008, published 2009)

Columns and labels:
melan-A cells [1] = experiment: Cytotoxicity test (MTT, OD540) in Melan-A cells; assay type: cell-based; conditions: for Cell survival rate (%): Melan-A cells, MTT, three days, vs non-treated group = 100
Procedure: Upon completion of the culture, the medium was eliminated and 100 μl of MTT (3-(4,5-dimethythiazol-2-yl)-2,5-diphenyltetrazoliu,bromide) solution was added to each well of the plate, followed by reaction at 37° C. for 4 hours. Upon completion of the reaction, the solution was eliminated and 100 μl of DMSO was added to each well of the plate to lyse the stained cells. Then, OD540 was measured using ELISA reader. Cell survival rate was calculated by the following mathematical formula 2 (Table 2, FIGS. 4 and 5).
Cell survival rate (%)=(OD of treated group/OD of non-treated group)×100 [Mathematical Formula 2]

melan-A cells [2] = experiment: Melanin generation inhibition by measuring OD405 in melan-A melanocytes; assay type: cell-based; conditions: for Melanin generation rate (%): culture for three days, vs non-treated group = 100
Procedure: Melan-A melanocytes were provided by AmorePacific Co., Korea. Melan-A is the cell line producing melanin, which has been usually used for the examination of a whitening agent. For cell culture, RPMI1640 medium supplemented with 10% FBS, 1% penicillin/streptomycin, and 200 nM TPA was prepared and sterilized. The cells were cultured in a 37° C., 10% CO2 incubator. When the melan-A cells were grown to fill 90% of 100 mm Petri-dish, the cells were sub-cultured.
The cells were recovered by using trypsine-EDTA. 1N NaOH containing 10% DMSO (dimethylsulfoxide) was added to the recovered cells, followed by reaction at 80° C. for 1 hour to let melanin dissolved fully. Then, OD405 was measured using ELISA reader (VERSAmax, Molecular device, USA). Melanin generation was quantified by the following mathematical formula 1 (Table 1, FIGS. 4 and 5).
Melanin generation rate (%)=OD of treated group/OD of non-treated group×100 [Mathematical Formula 1]

## NC(=S)Nc1ccccc1 [Phenylthiourea, phenylthiourea, reference compound]
melan-A cells [1]; 50 uM
  Cell survival rate (%): 100.19%
melan-A cells [2]; 50 uM
  Melanin generation rate (%): 36.19%

## C/C=C\C#CC#C/C=C\C(=O)OC [(2Z,8Z)-matricaria acid methyl ester]
melan-A cells [1]; 4.5 uM
  Cell survival rate (%): 106.66%
melan-A cells [1]; 9 uM
  Cell survival rate (%): 99.44%
melan-A cells [1]; at a low concentration
  Cytotoxicity (result in words): no cytotoxicity was observed
melan-A cells [2]; 4.5 uM
  Melanin generation rate (%): 36.37%
melan-A cells [2]; 9 uM
  Melanin generation rate (%): 26.92%
melan-A cells [2]; compared with non-treated negative control (and positive control PTU for the compound)
  Melanin generation (result in words): inhibited melanin generation at a lower concentration
